Laboratory results: BindingDB's records for patent US10799494 (2020)

Target: T1, Probable integral membrane cytochrome D ubiquinol oxidase (Subunit II) CydB (Cytochrome BD-I oxidase subunit II) (Mycobacterium tuberculosis (strain ATCC 25618 / H37Rv), UniProt O06139)
T1 sequence (O06139 whole entry): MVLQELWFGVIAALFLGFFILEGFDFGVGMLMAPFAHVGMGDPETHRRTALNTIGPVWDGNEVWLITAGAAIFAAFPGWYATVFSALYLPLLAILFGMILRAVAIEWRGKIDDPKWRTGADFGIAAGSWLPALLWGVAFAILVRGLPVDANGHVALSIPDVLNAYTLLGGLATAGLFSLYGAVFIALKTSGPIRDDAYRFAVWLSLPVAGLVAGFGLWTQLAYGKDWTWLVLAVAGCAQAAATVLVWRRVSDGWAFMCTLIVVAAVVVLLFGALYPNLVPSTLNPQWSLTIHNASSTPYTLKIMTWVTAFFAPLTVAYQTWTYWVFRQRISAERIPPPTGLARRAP
Experiment: Mtb cytochrome bd inhibition assay

O=c1cc(-c2cnn(Cc3ccc(OC(F)(F)F)cc3)c2)[nH]c2ccccc12 [US10799494, Compound WDH-1W-5]
IC50: 15800 nM

COc1ccc2c(=O)c(C)c(-c3ccc(Oc4ccc(OC(F)(F)F)cc4)nc3)[nH]c2c1 [US10799494, Compound RKA-259]
IC50: 3600 nM

Cc1c(-c2ccc(N3CCCCC3)cc2)[nH]c2cc(F)cc(F)c2c1=O [US10799494, Compound MTD-403]
IC50: 270 nM

Cc1c(-c2ccc(-c3ccc(C(F)(F)F)cc3)nc2)[nH]c2ccccc2c1=O [US10799494, Example RKA 142]
IC50: 2020 nM

Cc1c(-c2cnn(Cc3ccc(OC(F)(F)F)cc3)c2)[nH]c2ccccc2c1=O [US10799494, Compound WDH-2A-9]
IC50: 6500 nM

Cc1[nH]c2ccccc2c(=O)c1-c1ccc(Oc2ccc(OC(F)(F)F)cc2)cc1 [US10799494, Compound PG-203]
IC50: 70 nM

Cc1c(-c2ccc(-c3ccc(C(F)(F)F)nc3)nc2)[nH]c2ccccc2c1=O [US10799494, Compound PG-128]
IC50: 4470 nM

Cc1c(-c2ccc(Oc3ccc(OC(F)(F)F)cc3)nc2)[nH]c2ccccc2c1=O [US10799494, Compound CK-3-22]
IC50: 140 nM

Cc1c(-c2ccc(-c3ccc(OC(F)(F)F)cc3)nc2)[nH]c2ccccc2c1=O [US10799494, Compound SL-2-25]
IC50: 290 nM

COc1c(C)c(-c2ccc(Cc3ccccc3)cc2)nc2ccccc12 [US10799494, Compound CK-3-23]
IC50: 3600 nM

Cc1c(-c2ccc(Cc3ccccc3)cc2)[nH]c2ccccc2c1=O [US10799494, Compound CK-2-88]
IC50: 20 nM

CC(C)c1c(-c2cnn(Cc3ccc(OC(F)(F)F)cc3)c2)[nH]c2ccccc2c1=O [US10799494, Example WDH-2G-6]
IC50: 82 nM

CCOC(=O)c1c(-c2ccc(Cc3ccc(OC(F)(F)F)cc3)cc2)[nH]c2ccccc2c1=O [US10799494, Compound GN-1710]
IC50: 250 nM

COc1ccc2c(=O)c(C)c(-c3ccc(N4CCCCC4)cc3)[nH]c2c1 [US10799494, Compound RKA-310]
IC50: 1400 nM

O=c1cc(-c2ccc(Cc3ccc(OC(F)(F)F)cc3)cc2)n(O)c2ccccc12 [US10799494, Compound RKA-73]
IC50: 310 nM

Cc1c(-c2ccc(Oc3ccc(F)cc3)nc2)[nH]c2ccccc2c1=O [US10799494, Compound CK-3-14]
IC50: 10600 nM

Cc1c(-c2ccc(N3CCCCC3)cc2)[nH]c2ccccc2c1=O [US10799494, Compound RKA-307]
IC50: 440 nM

O=c1cc(-c2ccc(Cc3ccc(OC(F)(F)F)cc3)cc2)[nH]c2ccccc12 [US10799494, Compound RKA-70]
IC50: 750 nM
